Assay results: PubChem BioAssay AID330 (DTP/NCI, 2004)
Where “and” joins values, the source holds several entries; their conditions need not be identical. Equal entries are not always repeated. Inconclusive results and toxic doses are left out. Rule for the calls: active = survival T/C of 150% or more; inactive = T/C below 125% in these data.

Test system: P388 leukemia ip, CD2F1 mice, survival T/C
Assay: NCI In Vivo Anticancer Drug Screen. Data for tumor model P388 Leukemia (intraperitoneal) in CD2F1 (CDF1) mice
Conditions: endpoint: median survival time, higher = longer survival
In short: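 Mice carrying the transplanted tumor received test compound or vehicle. Survival was recorded in each group, and the value is the treated-group measurement divided by that of the vehicle-treated control group.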

[1] = dose: 6.25 mg/kg/injection, schedule: Q01DX009 (ip), vehicle: saline with Tween-80
[2] = dose: 12.5 mg/kg/injection, schedule: Q01DX009 (ip), vehicle: saline with Tween-80
[3] = dose: 25.0 mg/kg/injection, schedule: Q01DX009 (ip), vehicle: saline with Tween-80
[4] = dose: 50.0 mg/kg/injection, schedule: Q01DX009 (ip), vehicle: saline with Tween-80
[5] = dose: 50.0 mg/kg/injection, schedule: Q01DX009 (ip), vehicle: saline
[6] = dose: 100.0 mg/kg/injection, schedule: Q01DX009 (ip), vehicle: saline with Tween-80
[7] = dose: 100.0 mg/kg/injection, schedule: Q01DX009 (ip), vehicle: saline
[8] = dose: 60.0 mg/kg/injection, schedule: Q01DX005 (ip), vehicle: Klucel (hydroxypropylcellulose) (HPC)
[9] = dose: 25.0 mg/kg/injection, schedule: Q01DX009 (ip), vehicle: Klucel (hydroxypropylcellulose) (HPC)
[10] = dose: 50.0 mg/kg/injection, schedule: Q01DX009 (ip), vehicle: Klucel (hydroxypropylcellulose) (HPC)
[11] = dose: 100.0 mg/kg/injection, schedule: Q01DX009 (ip), vehicle: Klucel (hydroxypropylcellulose) (HPC)
[12] = dose: 200.0 mg/kg/injection, schedule: Q01DX009 (ip), vehicle: Klucel (hydroxypropylcellulose) (HPC)
[13] = dose: 200.0 mg/kg/injection, schedule: Q01DX009 (ip), vehicle: saline
[14] = dose: 400.0 mg/kg/injection, schedule: Q01DX009 (ip), vehicle: saline

Measured: T/C

CC(CN(C)C)C(=O)c1ccccc1 (centres undefined)
inactive: [1] 113 % of control | [2] 112 % of control | [3] 120 % of control | [4] 114 % of control | [5] 99 % of control | [6] 117 % of control | [7] 99 % of control

CC1(C)C=C(NC(=O)N2CC2)C(C)(C)N1O
inactive: [1] 100 % of control | [2] 103 % of control | [3] 103 % of control | [4] 117 % of control

COC(=O)C1CC(NO)CN1S(=O)(=O)c1ccc(C)cc1 (centres undefined)
inactive: dose: 100.0 mg/kg/injection, schedule: Q04DX002 (ip), vehicle: saline with Tween-80 99 % of control | dose: 200.0 mg/kg/injection, schedule: Q04DX002 (ip), vehicle: saline with Tween-80 95 % of control | dose: 400.0 mg/kg/injection, schedule: Q04DX002 (ip), vehicle: saline with Tween-80 93 % of control

O=C1C2C3C=CC(C2C(=O)N1c1ccccc1)C1C2C(=O)N(c4ccccc4)C(=O)C2C31 (centres undefined)
inactive: dose: 100.0 mg/kg/injection, schedule: Q01DX001 (ip), vehicle: saline with Tween-80 88 % of control | dose: 200.0 mg/kg/injection, schedule: Q01DX001 (ip), vehicle: saline with Tween-80 89 % of control | dose: 400.0 mg/kg/injection, schedule: Q01DX001 (ip), vehicle: saline with Tween-80 93 % of control

C=C1C(=O)OC2C(OC(=O)C(C)C)CCCC12 (centres undefined)
inactive: [8] 105 % of control | dose: 120.0 mg/kg/injection, schedule: Q01DX005 (ip), vehicle: Klucel (hydroxypropylcellulose) (HPC) 100 % of control | dose: 240.0 mg/kg/injection, schedule: Q01DX005 (ip), vehicle: Klucel (hydroxypropylcellulose) (HPC) 102 % of control

O=c1cccc(O)[nH]1
inactive: [5] 109 % of control and 94 % of control | [7] 100 % of control and 93 % of control

CCN(CC)CCCC(C)Nc1ccc2ccc(Cl)cc2n1 (centres undefined)
inactive: dose: 50.0 mg/kg/injection, schedule: Q01DX005 (ip), vehicle: saline + Tween-80 + alcohol 101 % of control | dose: 100.0 mg/kg/injection, schedule: Q01DX005 (ip), vehicle: saline + Tween-80 + alcohol 101 % of control | dose: 200.0 mg/kg/injection, schedule: Q01DX005 (ip), vehicle: saline + Tween-80 + alcohol 100 % of control

COC1/C=C/OC2(C)Oc3c(C)c(O)c4c(c3C2=O)C(N)=C(Nc2ccccc2)C(=NC(=O)C(C)=CC=CC(C)C(O)C(C)C(O)C(C)C(OC(C)=O)C1C)C4=O (centres undefined)
inactive: [9] 97 % of control | [10] 94 % of control | [11] 98 % of control | [12] 86 % of control

C=CCCCCC1CC2CCCCN2O1 (centres undefined)
inactive: [10] 94 % of control | [11] 103 % of control | [12] 113 % of control

CCCCCCC(Nc1ncnc(Cl)c1N)C(C)O (centres undefined)
inactive: [2] 97 % of control | [3] 100 % of control

COC1OC2COC(c3ccccc3)OC2C2OC(c3ccccc3)OC12 (centres undefined)
inactive: dose: 1.56 mg/kg/injection, schedule: Q01DX009 (ip), vehicle: other 116 % of control | dose: 3.13 mg/kg/injection, schedule: Q01DX009 (ip), vehicle: other 106 % of control | dose: 6.25 mg/kg/injection, schedule: Q01DX009 (ip), vehicle: other 119 % of control | dose: 12.5 mg/kg/injection, schedule: Q01DX009 (ip), vehicle: other 113 % of control | dose: 25.0 mg/kg/injection, schedule: Q01DX009 (ip), vehicle: other 113 % of control and 87 % of control | dose: 50.0 mg/kg/injection, schedule: Q01DX009 (ip), vehicle: other 91 % of control | dose: 100.0 mg/kg/injection, schedule: Q01DX009 (ip), vehicle: other 91 % of control | dose: 200.0 mg/kg/injection, schedule: Q01DX009 (ip), vehicle: other 89 % of control | dose: 400.0 mg/kg/injection, schedule: Q01DX009 (ip), vehicle: other 92 % of control

Nc1ccc(/C=C/c2ccc(N)cc2S(=O)(=O)O)c(S(=O)(=O)O)c1
inactive: dose: 25.0 mg/kg/injection, schedule: Q01DX009 (ip), vehicle: suspension in saline 99 % of control | [5] 104 % of control | dose: 50.0 mg/kg/injection, schedule: Q01DX009 (ip), vehicle: suspension in saline 95 % of control | [7] 104 % of control | dose: 100.0 mg/kg/injection, schedule: Q01DX009 (ip), vehicle: suspension in saline 99 % of control | [13] 108 % of control | dose: 200.0 mg/kg/injection, schedule: Q01DX009 (ip), vehicle: suspension in saline 107 % of control | [14] 110 % of control

COc1cc(C2CC(C)(N3CCCC3)Oc3cc4c(cc32)OCO4)cc(OC)c1OC (centres undefined)
inactive: [8] 106 % of control and 109 % of control

C=CC(=O)NC(CSCc1ccccc1)C(=O)O (centres undefined)
inactive: dose: 50.0 mg/kg/injection, schedule: Q01DX005 (ip), vehicle: Klucel (hydroxypropylcellulose) (HPC) 98 % of control | dose: 100.0 mg/kg/injection, schedule: Q01DX005 (ip), vehicle: Klucel (hydroxypropylcellulose) (HPC) 109 % of control | dose: 200.0 mg/kg/injection, schedule: Q01DX005 (ip), vehicle: Klucel (hydroxypropylcellulose) (HPC) 98 % of control

Nc1nc2c(C(=O)N3CCCC3)nnn2c2ccccc12
inactive: [4] 93 % of control | [6] 94 % of control

OC(CI)C(O)C(O)C(O)CI (centres undefined)
inactive: [6] 105 % of control and 115 % of control | [7] 98 % of control | dose: 100.0 mg/kg/injection, schedule: Q04DX003 (ip), vehicle: saline with Tween-80 100 % of control and 104 % of control | dose: 132.0 mg/kg/injection, schedule: Q01DX009 (ip), vehicle: saline with Tween-80 122 % of control | [13] 91 % of control | dose: 200.0 mg/kg/injection, schedule: Q04DX003 (ip), vehicle: saline with Tween-80 104 % of control and 113 % of control | [14] 105 % of control | dose: 400.0 mg/kg/injection, schedule: Q04DX003 (ip), vehicle: saline with Tween-80 100 % of control and 113 % of control | dose: 500.0 mg/kg/injection, schedule: Q01DX009 (ip), vehicle: saline 96 % of control

O=C1CCC(N2C(=O)c3ccccc3C2=O)C(=O)N1 (centres undefined)
inactive: [4] 100 % of control | [6] 92 % of control

N#CCCP(=O)(O)CO
inactive: [5] 106 % of control | [7] 100 % of control | [13] 92 % of control

C=C1CC2(OC1=O)C1CC3CC(C1)CC2C3 (centres undefined)
inactive: dose: 100.0 mg/kg/injection, schedule: Q04DX002 (ip), vehicle: saline 99 % of control | dose: 200.0 mg/kg/injection, schedule: Q04DX002 (ip), vehicle: saline 98 % of control | dose: 400.0 mg/kg/injection, schedule: Q04DX002 (ip), vehicle: saline 99 % of control

NCCCN1CCCC1
inactive: dose: 50.0 mg/kg/injection, schedule: Q01DX005 (ip), vehicle: saline 95 % of control | dose: 100.0 mg/kg/injection, schedule: Q01DX005 (ip), vehicle: saline 105 % of control

ClC(Cl)=C(Cl)Cl
inactive: [2] 102 % of control and 107 % of control | [9] 100 % of control and 109 % of control | [3] 107 % of control and 114 % of control | [10] 98 % of control and 103 % of control | [4] 105 % of control and 112 % of control | [11] 100 % of control and 107 % of control | [6] 108 % of control and 112 % of control | [12] 100 % of control | dose: 200.0 mg/kg/injection, schedule: Q01DX009 (ip), vehicle: saline with Tween-80 107 % of control and 110 % of control | dose: 300.0 mg/kg/injection, schedule: Q01DX009 (ip), vehicle: Klucel (hydroxypropylcellulose) (HPC) 104 % of control and 106 % of control

SC1CCCN(Cc2ccccc2)C1 (centres undefined)
inactive: dose: 50.0 mg/kg/injection, schedule: Q01DX005 (ip), vehicle: saline with Tween-80 117 % of control | dose: 100.0 mg/kg/injection, schedule: Q01DX005 (ip), vehicle: saline with Tween-80 108 % of control | dose: 200.0 mg/kg/injection, schedule: Q01DX005 (ip), vehicle: saline with Tween-80 110 % of control
